Assay results published in patent publication EP2260303B1, “BIOMARKER FOR THE DIAGNOSIS OF A BRAIN TUMOR” (Meyer, Helmut E., priority 2008, dated 2009).

Legend:
[1] = tested on: Glioblastomzelllinie A172; assay: Chemosensitivity (dose-response curves, EC50) of A172 cell lines with modified biomarker expression; assay type: cell-based; conditions: Homo sapiens
Source text: (§1) Alle erfindungsgemäßen Biomarker (SEQ ID No. 1 - 24), die in den differentiellen Untersuchungen identifiziert wurden, sind potentiell in der Lage an der Vermittlung der Chemosensitivität dieser Gliome beteiligt zu sein. Durch den Einsatz ausgewählter Zytostatika mit unterschiedlichen Wirkmechanismen kann überprüft werden, ob die erfindungsgemäßen Biomarker (SEQ ID No. 1 - 24) direkt mit dem Reaktionsmechanismus der in der Therapie üblichen Zytostatika wechselwirken. Hierzu wurden stabile Zelllinien hergestellt und die erfindungsgemäßen Biomarker verstärkt exprimiert (Überexpression) und vermindert (knock-down) exprimiert (siehe J. Sambrook, E.F. Fritsch, T. Maniatis (1989), Molecular cloning: A laboratory manual, 2nd Edition, Cold Spring Habor Laboratory Press, Cold Spring Habor, USA oder Ausubel, "Current Protocols in Molecular Biology", Green Publishing Associates and Wiley Interscience, N.Y. (1989)). Eingesetzte Zytostatika: Carmustin und Vincristin, zwei Substanzen aus dem in der Therapie üblichen PCV Polychemotherapieschema, und Temozolomid, einem in der Therapie […] maligner Gliome neueren Wirkstoff. Zur Auswertung eines Effekts wurden Dosis-Wirkungs-Kurven und deren Lage zueinander und der korrespondierende EC50 Wert (Effektkonzentration; EC-50-Wert besagt, dass bei dieser Konzentration des Stoffes die Hälfte der Versuchsorganismen Wirkungen zeigt) berechnet.

[2] = tested on: Glioblastomzelllinie T98G; assay: Chemosensitivity (dose-response curves, EC50) of T98G cell lines with modified biomarker expression; assay type: cell-based; conditions: Homo sapiens
Source text: as §1

[3] = tested on: stabilen Zelllinien aus A172 und T98G; assay: Comparison of the response of the stable A172 and T98G cell lines to cytostatics (summary in words); assay type: cell-based, human; conditions: versus control; for Verschiebung der Konzentrationen (Dosis-Wirkungs-Kurven): both cell lines
Source text: as §1
Eine veränderte Reaktion auf eine Behandlung mit Carmustin wurde in allen stabilen Zelllinien aus A172 sowie aus T98G beobachtet.
Einen ähnlichen Effekt zeigte die Behandlung der Zelllinien mit Vincristin. […] Dieses Verhalten wurde ebenfalls in den beiden Zelllinien beobachtet.

O=NN(CCCl)C(=O)NCCCl [Carmustin] was tested, and the EC50 ([1]; A 172, A172 knock-down of ANXA1, treatment with Carmustin) was 95.6 µM, the EC50 ([1]; A 172, A172 knock-down of CLIC1, treatment with Carmustin) was 171 µM and the EC50 ([1]; A 172, A172 knock-down of PRDX1, treatment with Carmustin) was 107 µM. It also gave an EC50 ([1]; A 172, A172 knock-down of VIL2, treatment with Carmustin) of 90.8 µM, an EC50 ([1]; A 172, A172 knock-down series, control cell line (Kontrolle), treatment with Carmustin) of 94.4 µM and an EC50 ([1]; A 172, A172 overexpressing ANXA1, treatment with Carmustin) of 88.3 µM. The EC50 ([1]; A 172, A172 overexpressing CLIC1, treatment with Carmustin) was 105 µM, the EC50 ([1]; A 172, A172 overexpressing PRDX1, treatment with Carmustin) was 35.7 µM and the EC50 ([1]; A 172, A172 overexpressing VIL2, treatment with Carmustin) was 106 µM. It also gave an EC50 ([1]; A 172, A172 overexpression series, control cell line (Kontrolle), treatment with Carmustin) of 7.87 µM, an EC50 ([2]; T98G knock-down of ANXA1, treatment with Carmustin) of 121 µM and an EC50 ([2]; T98G knock-down of CLIC1, treatment with Carmustin) of 85.5 µM. For the same compound, the EC50 ([2]; T98G knock-down of PRDX1, treatment with Carmustin) was 118 µM, the EC50 ([2]; T98G knock-down of VIL2, treatment with Carmustin) was 159 µM and the EC50 ([2]; T98G knock-down series, control cell line (Kontrolle), treatment with Carmustin) was 152 µM. For the same compound, the EC50 ([2]; T98G overexpressing ANXA1, treatment with Carmustin) was 207 µM, the EC50 ([2]; T98G overexpressing CLIC1, treatment with Carmustin) was 346 µM and the EC50 ([2]; T98G overexpressing PRDX1, treatment with Carmustin) was 158 µM. For the same compound, the EC50 ([2]; T98G overexpressing VIL2, treatment with Carmustin) was 223 µM and the EC50 ([2]; T98G overexpression series, control cell line (Kontrolle), treatment with Carmustin) was 64.8 µM.

In the case of Cn1nnc2c(C(N)=O)ncn2c1=O [Temozolomid], the EC50 ([1]; A 172, A172 knock-down of ANXA1, treatment with Temozolomid) is reported as 113 µM, the EC50 ([1]; A 172, A172 knock-down of CLIC1, treatment with Temozolomid) is reported as 150 µM and the EC50 ([1]; A 172, A172 knock-down of PRDX1, treatment with Temozolomid) is reported as 118 µM. For the same compound, the EC50 ([1]; A 172, A172 knock-down of VIL2, treatment with Temozolomid) was 115 µM, the EC50 ([1]; A 172, A172 knock-down series, control cell line (Kontrolle), treatment with Temozolomid) was 41 µM and the EC50 ([1]; A 172, A172 overexpressing ANXA1, treatment with Temozolomid) was 123 µM. For the same compound, the EC50 ([1]; A 172, A172 overexpressing CLIC1, treatment with Temozolomid) was 82.6 µM, the EC50 ([1]; A 172, A172 overexpressing PRDX1, treatment with Temozolomid) was 26.4 µM and the EC50 ([1]; A 172, A172 overexpressing VIL2, treatment with Temozolomid) was 83.1 µM. The EC50 ([1]; A 172, A172 overexpression series, control cell line (Kontrolle), treatment with Temozolomid) was 165 µM, the EC50 ([2]; T98G knock-down of ANXA1, treatment with Temozolomid) was 386 µM and the EC50 ([2]; T98G knock-down of CLIC1, treatment with Temozolomid) was 335 µM. The EC50 ([2]; T98G knock-down of PRDX1, treatment with Temozolomid) was 383 µM, the EC50 ([2]; T98G knock-down of VIL2, treatment with Temozolomid) was 348 µM and the EC50 ([2]; T98G knock-down series, control cell line (Kontrolle), treatment with Temozolomid) was 327 µM. The EC50 ([2]; T98G overexpressing ANXA1, treatment with Temozolomid) was 409 µM, the EC50 ([2]; T98G overexpressing CLIC1, treatment with Temozolomid) was 334 µM and the EC50 ([2]; T98G overexpressing PRDX1, treatment with Temozolomid) was 321 µM. The EC50 ([2]; T98G overexpressing VIL2, treatment with Temozolomid) was 396 µM, the EC50 ([2]; T98G overexpression series, control cell line (Kontrolle), treatment with Temozolomid) was 394 µM and the Sensitivität ([3]; biomarkers overexpressed, stable cell lines from A172 and T98G) was “erhöhte Sensitivität”. The Sensitivität ([3]; knock-down cell lines from A172 and T98G) was “umgekehrter Effekt”.

CC[C@]1(O)C[C@H]2CN(CCc3c([nH]c4ccccc34)[C@@](C(=O)OC)(c3cc4c(cc3OC)N(C=O)[C@H]3[C@@](O)(C(=O)OC)[C@H](OC(C)=O)[C@]5(CC)C=CCN6CC[C@]43[C@@H]65)C2)C1 [Vincristin] was tested, and the EC50 ([1]; A 172, A172 knock-down of ANXA1, treatment with Vincristin) was 0.037 µM, the EC50 ([1]; A 172, A172 knock-down of CLIC1, treatment with Vincristin) was 0.0642 µM and the EC50 ([1]; A 172, A172 knock-down of PRDX1, treatment with Vincristin) was 0.0527 µM. The EC50 ([1]; A 172, A172 knock-down of VIL2, treatment with Vincristin) was 0.0202 µM, the EC50 ([1]; A 172, A172 knock-down series, control cell line (Kontrolle), treatment with Vincristin) was 0.0322 µM and the EC50 ([1]; A 172, A172 overexpressing ANXA1, treatment with Vincristin) was 0.0153 µM. For the same compound, the EC50 ([1]; A 172, A172 overexpressing CLIC1, treatment with Vincristin) was 0.0193 µM, the EC50 ([1]; A 172, A172 overexpressing PRDX1, treatment with Vincristin) was 0.0127 µM and the EC50 ([1]; A 172, A172 overexpressing VIL2, treatment with Vincristin) was 0.0033 µM. The EC50 ([1]; A 172, A172 overexpression series, control cell line (Kontrolle), treatment with Vincristin) was 0.0152 µM, the EC50 ([2]; T98G knock-down of ANXA1, treatment with Vincristin) was 0.0191 µM and the EC50 ([2]; T98G knock-down of CLIC1, treatment with Vincristin) was 0.0269 µM. The EC50 ([2]; T98G knock-down of PRDX1, treatment with Vincristin) was 0.0206 µM, the EC50 ([2]; T98G knock-down of VIL2, treatment with Vincristin) was 0.0358 µM and the EC50 ([2]; T98G knock-down series, control cell line (Kontrolle), treatment with Vincristin) was 0.01 µM. It also gave an EC50 ([2]; T98G overexpressing ANXA1, treatment with Vincristin) of 0.0042 µM, an EC50 ([2]; T98G overexpressing CLIC1, treatment with Vincristin) of 0.0037 µM and an EC50 ([2]; T98G overexpressing PRDX1, treatment with Vincristin) of 0.0096 µM. The EC50 ([2]; T98G overexpressing VIL2, treatment with Vincristin) was 0.0241 µM, the EC50 ([2]; T98G overexpression series, control cell line (Kontrolle), treatment with Vincristin) was 0.0324 µM and the “Verschiebung der Konzentrationen (Dosis-Wirkungs-Kurven)” value ([3]; cell lines overexpressing the biomarkers) was “Verschiebung zu niedrigeren Konzentrationen”. The “Verschiebung der Konzentrationen (Dosis-Wirkungs-Kurven)” value ([3]; knock-down of the biomarkers) was “höhere Konzentrationen notwendig”.
